The text below walks through data of US9120756B2, “Substituted phenylureas and phenylamides as vanilloid receptor ligands” (Gruenenthal GmbH, priority 2009, dated 2015).

Assay [1] addresses hVR1 (Homo sapiens (Human), UniProt Q8NER1). In words: FLIPR Ca2+ influx assay on CHO K1 cells transfected with the VR1 gene, capsaicin stimulus (method II). Type of assay: cell-based. The note with it: capsaicin (Cap), read-out: Ki (human being) [nM] Cap.
The target of assay [2] is rat-species vanilloid receptor 1 (VR1/TRPV1) (Rattus norvegicus (Rat), UniProt O35433). In words: FLIPR Ca2+ influx assay on rat dorsal root ganglia cells, capsaicin stimulus (method I). The following applies: capsaicin (Cap). Type of assay: cell-based.
rat-species vanilloid receptor 1 (VR1/TRPV1), sequence (O35433 whole entry): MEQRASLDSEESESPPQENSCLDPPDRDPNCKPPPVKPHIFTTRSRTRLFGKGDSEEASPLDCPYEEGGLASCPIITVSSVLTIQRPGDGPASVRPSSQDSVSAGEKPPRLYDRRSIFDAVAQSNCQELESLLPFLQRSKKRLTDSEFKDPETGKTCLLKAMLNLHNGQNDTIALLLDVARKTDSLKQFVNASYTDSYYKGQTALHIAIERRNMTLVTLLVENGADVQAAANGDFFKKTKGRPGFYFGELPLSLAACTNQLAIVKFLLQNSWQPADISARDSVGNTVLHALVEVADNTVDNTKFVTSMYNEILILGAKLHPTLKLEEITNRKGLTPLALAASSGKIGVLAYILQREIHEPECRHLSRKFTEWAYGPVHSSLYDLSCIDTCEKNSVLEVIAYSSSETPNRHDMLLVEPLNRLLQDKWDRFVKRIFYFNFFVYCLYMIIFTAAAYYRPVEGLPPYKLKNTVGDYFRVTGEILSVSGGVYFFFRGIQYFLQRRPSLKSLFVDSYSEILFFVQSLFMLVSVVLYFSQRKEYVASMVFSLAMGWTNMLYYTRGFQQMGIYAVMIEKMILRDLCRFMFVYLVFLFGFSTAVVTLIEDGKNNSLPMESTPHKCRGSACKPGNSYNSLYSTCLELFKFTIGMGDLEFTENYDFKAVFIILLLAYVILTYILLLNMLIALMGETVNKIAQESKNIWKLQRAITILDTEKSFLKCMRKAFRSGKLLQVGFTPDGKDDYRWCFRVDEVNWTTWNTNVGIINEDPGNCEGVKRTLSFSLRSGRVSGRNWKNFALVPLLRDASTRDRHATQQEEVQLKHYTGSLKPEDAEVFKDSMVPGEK

hVR1, sequence (Q8NER1 whole entry): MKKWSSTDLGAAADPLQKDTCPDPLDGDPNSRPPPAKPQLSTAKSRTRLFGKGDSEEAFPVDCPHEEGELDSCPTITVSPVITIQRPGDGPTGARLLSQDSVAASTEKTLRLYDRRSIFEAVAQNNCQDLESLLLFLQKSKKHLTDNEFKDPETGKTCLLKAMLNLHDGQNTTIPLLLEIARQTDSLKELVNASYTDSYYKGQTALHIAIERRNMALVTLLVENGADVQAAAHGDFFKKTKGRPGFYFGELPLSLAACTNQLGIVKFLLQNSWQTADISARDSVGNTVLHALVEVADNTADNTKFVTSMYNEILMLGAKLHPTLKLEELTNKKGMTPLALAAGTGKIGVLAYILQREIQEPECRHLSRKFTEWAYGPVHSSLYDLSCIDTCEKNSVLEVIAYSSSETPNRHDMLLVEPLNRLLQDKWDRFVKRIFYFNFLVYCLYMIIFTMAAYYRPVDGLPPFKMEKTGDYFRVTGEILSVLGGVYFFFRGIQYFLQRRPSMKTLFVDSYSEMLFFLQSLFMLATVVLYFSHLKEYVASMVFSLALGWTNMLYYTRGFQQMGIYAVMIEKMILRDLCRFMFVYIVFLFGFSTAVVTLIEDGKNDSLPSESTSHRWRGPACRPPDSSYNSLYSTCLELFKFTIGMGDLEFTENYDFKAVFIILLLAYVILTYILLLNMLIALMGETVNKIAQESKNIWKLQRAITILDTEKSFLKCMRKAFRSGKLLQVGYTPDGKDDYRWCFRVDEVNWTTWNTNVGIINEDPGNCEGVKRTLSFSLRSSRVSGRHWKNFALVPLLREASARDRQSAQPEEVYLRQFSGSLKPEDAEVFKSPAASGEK

A word on the Ki: it is a measure of affinity in units of concentration, obtained from inhibition or displacement. Regarding `O=C(Cc1cccc(F)c1)NCc1cc(C(F)(F)F)nn1-c1cccc(Cl)c1` [Example 74, N-((1-(3-chlorophenyl)-3-(trifluoromethyl)-1H-pyrazol-5-yl)methyl)-2-(3-fluorophenyl)acetamide], the Ki in assay [1] was 51.8 nM; in assay [2] it was 85 nM.
